Data from patent publication US7615533B2, “TPO peptide compounds for treatment of anemia” (Janssen Pharmaceutica N.V., priority 2004, dated 2009).
Non-standard residues stand in square brackets, D forms with d. No end group written: not given here. 2Nal = N[C@@H](Cc1ccc2ccccc2c1)C(=O)O; Sar = CNCC(=O)O

Columns and labels:
carboplatin treated mice = assay: Example 2: dosing before and/or after carboplatin, hematological parameters in mice; type: in vivo, BALB/c mouse
Protocol: (§1) The effects of PEGylated TPO Compound No. 1 on mice treated with carboplatin were observed. For all examples herein, a 10 mg/ml stock solution of PEGylated TPO Compound No. 1 was prepared in sterile saline. For mixing, the preparation was placed on a gyratory shaker for 15 mm. at 200 rpm. This method was used to dissolve PEGylated TPO Compound No. 1 without foaming. The stock was filtered using a GV Millex (0.22 μm) filter. Dosing solutions were then prepared from this stock using sterile saline. The stock and dosing solutions were prepared fresh on the day of use.
The possibility that PEGylated TPO Compound No. 1 may sensitize bone marrow hematopoietic stem cells of mice to the toxic effects of carboplatin treatment was examined. For this study, a dose of PEGylated TPO Compound No. 1 was administered to the mice seven days prior to the carboplatin dose or immediately after carboplatin treatment. An additional group was treated with PEGylated TPO Compound No. 1 both prior to and after carboplatin administration. The effect of these dosing regimens on hematological parameters was also observed.
The groups of mice were treated with either carboplatin or vehicle (Phosphate Buffered Saline, PBS) by ip administration on Days 7 and 8 as delineated below. The optimal dose of carboplatin used to induce thrombocytopenia in the BALB/c mouse strain was previously determined to be a fractionated total dose of 120 mg/kg given as two consecutive daily injections (i.e., 2×60 mg/kg). Seven days prior to the first carboplatin dose or one (1) hour after the second dose of carboplatin, groups of mice were treated with PEGylated TPO Compound No. 1 (300 μg/kg) or vehicle (sterile saline, SS, preservative-free 0.9% sodium chloride) by IV (bolus) injection as delineated in Table 2. An additional group was treated with PEGylated TPO Compound No. 1 both before (Day 0) and after (Day 8, t=1 h) the carboplatin dose. All dosing was performed on a per-weight basis (100 μl/10 g body weight).
On Days 14, 18, 22 and 26, five mice in each test group were weighed and then euthanised using CO2-asphyxiation and exsanguination via cardiac puncture. The blood samples were transferred to separate EDTA (lavender-top) microcontainers for hematological evaluation. Groups of control mice (5) were processed on Days 14 and 26. The data are presented graphically as group means +SEM.

carboplatin-treated mice = assay: Example 4: lower doses, survival of erythrocyte lineages in carboplatin-treated mice; type: in vivo, BALB/c mouse
Protocol: as §1
The ability of PEGylated TPO Compound No. 1 to function as a survival factor for megakaryocyte and erythrocyte lineages in carboplatin-treated mice as determined by changes in hematological parameters was observed. […] In this study, the effect of lower doses of PEGylated TPO Compound No. 1 (i.e., 30, 100 and 300 μg/kg) on the survival of erythrocyte lineages was examined to characterize the dose-response for this effect.
The groups of mice were treated with either carboplatin or vehicle (Phosphate Buffered Saline, PBS) by ip administration on Days −1 and 0 as delineated below. The optimal dose of carboplatin used to induce thrombocytopenia in the BALB/c mouse strain was previously determined to be a fractionated total dose of 120 mg/kg given as two consecutive daily injections (i.e., 2×60 mg/kg). Approximately one hour following the second dose of carboplatin, groups of mice were treated with PEGylated TPO Compound No. 1 or vehicle (sterile saline, SS, preservative-free 0.9% sodium chloride) by IV (bolus) injection as delineated in Table 4. The dose was administered on a per-weight basis (100 μl/10 g body weight).
On Days 6, 8 and 12, five mice in each test group were weighed and then euthanised using CO2-asphyxiation and exsanguinations via cardiac puncture. The blood samples were transferred to separate EDTA (lavender-top) microcontainers for hematologic evaluation. Groups of control mice (5) were processed on Days 6 & 12.

[1] = target: T1, human TPO receptor, c-mpl (hTPOr) (Homo sapiens, UniProt P40238); assay: Example 7: Baf/3 hTPOr fos/lux luciferase reporter assay; type: cell-based
T1 construct: expressed in transfected cells
T1 sequence (P40238 26-635): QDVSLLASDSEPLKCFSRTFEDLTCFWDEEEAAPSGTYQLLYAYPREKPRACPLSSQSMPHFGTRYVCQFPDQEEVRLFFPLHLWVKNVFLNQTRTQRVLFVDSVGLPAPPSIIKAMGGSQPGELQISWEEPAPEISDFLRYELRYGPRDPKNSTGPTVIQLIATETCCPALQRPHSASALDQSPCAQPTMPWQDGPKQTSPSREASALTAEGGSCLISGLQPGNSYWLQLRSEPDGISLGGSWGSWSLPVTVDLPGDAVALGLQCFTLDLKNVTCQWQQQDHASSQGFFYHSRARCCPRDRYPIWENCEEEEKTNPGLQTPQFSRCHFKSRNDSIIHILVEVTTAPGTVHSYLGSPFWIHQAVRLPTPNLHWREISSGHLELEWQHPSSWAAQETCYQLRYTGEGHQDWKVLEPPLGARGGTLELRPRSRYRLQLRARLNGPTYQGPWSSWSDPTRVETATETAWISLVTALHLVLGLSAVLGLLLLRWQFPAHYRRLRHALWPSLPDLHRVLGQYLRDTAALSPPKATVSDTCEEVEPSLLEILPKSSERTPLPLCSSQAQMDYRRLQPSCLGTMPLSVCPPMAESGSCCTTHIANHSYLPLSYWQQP
Source text: The activity of the peptide compounds can be determined using standard relative luminescent units assay techniques. The assay employs, e.g., murine cells engineered to stably express the human TPO receptor and a luciferase reporter construct driven by the fos promoter. The assay may be performed as follows: Serum deprived Baf/3 hTPOr fos/lux cells expressing the human TPO receptor, c-mpl (hTPOr), and a luciferase reporter construct are exposed to increasing concentrations of either rhTPO or peptide compound for approximately 18 hours. Cells are then incubated in a medium containing a luciferase substrate and the luminescence of the cells is measured using a luminometer.

Molecule | decreases in hemoglobin levels, RBC counts and hematocrits (carboplatin treated mice; carboplatin alone 2×60 mg/kg ip, Days 18 and 22 compared to control groups) | body weight loss (average) (carboplatin treated mice; carboplatin alone, between Days 7 and 26) | decrease in hemoglobin levels (carboplatin-treated mice; carboplatin alone 2×60 mg/kg ip, by Day 12) | carboplatin-induced changes in erythrocyte parameters (carboplatin treated mice; 300 μg/kg iv on Day 0 (only), seven days prior to carboplatin) | carboplatin-induced decreases in hemoglobin levels, RBC counts and hematocrits (carboplatin treated mice; 300 μg/kg iv on Day 8 (1 hour after second carboplatin) without or with additional dose on Day 0) | body weight between Days 7 and 26 (carboplatin treated mice; carboplatin plus various co-treatments, 300 μg/kg iv, no statistical analysis) | onset of signs (hunched, unkempt) (carboplatin treated mice; treatment on Day 8 without or with additional treatment on Day 0) | severity and duration of signs (hunched, unkempt) (carboplatin treated mice; treatment on Days 0 and 8) | carboplatin-induced decreases in RBC counts and hematocrit (carboplatin-treated mice; 30, 100, 300 μg/kg iv) | weight loss or recovery (carboplatin-treated mice; 30, 100, 300 μg/kg iv, 13-Day study period) | carboplatin-induced decrease in hemoglobin levels (carboplatin-treated mice; all doses (30, 100, 300 μg/kg iv, about one hour after second carboplatin dose), Day 12) | anemia induced by carboplatin (carboplatin-treated mice; all doses, Day 12) | altered appearance and behavior (hunched, unkempt, soft stool) (carboplatin-treated mice; appeared to be dose-dependent) | activation of TPO-R compared with TPO ([1]; at the same concentration as TPO) | activation of Baf/3 cells recombinantly expressing human TPO-R ([1]; increasing concentrations)
N.N.O=C([O-])C1(C(=O)[O-])CCC1.[Pt+2] [carboplatin, reference compound] | approx. 18% | approximately 4% | greater than 25% |  |  |  |  |  |  |  |  |  |  |  | 
Methoxypolyethyleneglycol20000-propionyl-L-Isoleucyl-L-Glutamyl-Glycyl-L-Prolyl-L-Threonyl-L-Leucyl-L-Arginyl-L-Glutaminyl-L-2-Naphthylalanyl-L-Leucyl-L-Alanyl-L-Alanyl-L-Arginyl-Sarcosyl-Ne-(methoxypolyethyleneglycol20000-propionyl-L-Isoleucyl-L-Glutamyl-Glycyl-L-Prolyl-L-Threonyl-L-Leucyl-L-Arginyl-L-Glutaminyl-L-2-Naphthylalanyl-L-Leucyl-L-Alanyl-L-Alanyl-L-Arginyl-Sarcosyl-)-Lysinamide ({methoxypolyethyleneglycol20000‑propionyl}-IEGPTLRQ[2Nal]LAAR[Sar]K[Sar]RAAL[2Nal]QRLTPGEI; also: dimer: positions 16-29 are the second 14-mer written in reverse, its Sar C-terminus joined to the K15 epsilon-amine, K15 is C-terminal lysinamide (NH2), methoxypolyethyleneglycol20000-propionyl also on Ile29 N-terminus) [PEGylated TPO Compound No. 1] |  |  |  | failed to affect carboplatin-induced changes | prevented | prevented this weight loss | appeared to delay the onset of these signs | decreased the severity and duration | effectively inhibited | did not appear to affect weight loss or recovery | totally inhibited | completely prevent the anemia | decreased the onset, frequency and severity of these signs | stronger activation | dose dependent
